PMC5955599, “The HTLV-1 gp21 fusion peptide inhibits antigen specific T-cell activation in-vitro and in mice” (PLoS Pathogens, 2018)
“Also recorded” adds a separate entry of the source.

Key:
[1] = system: MOG35-55–antigen specific T-cells; test: In-vitro T-cell proliferative response (H3-thymidine incorporation); assay type: cell-based, mouse (C57Bl/6J); conditions: peptide at 10μM
C57BL/6 female mice = test: MOG35-55-induced experimental autoimmune encephalomyelitis (EAE); assay type: in vivo, mouse
Procedure: (A-B) MOG35-55–antigen specific T-cells were activated by irradiated MOG35-55 presenting APCs, in the presence of HTLV FP or HTLV Scr at 10μM. (A) The proliferative responses were assessed by H^3-thymidine incorporation assay, and normalized to the proliferation of non-activated T-cells. The data is presented as mean inhibition of proliferation. n = 12. (B) IFN-γ was measured by ELISA assay. n = 12. (C-D) EAE was induced in C57BL/6 female mice that were treated with a single dose of HTLV FP, HTLV Scr or vehicle. […] (C) Direct clinical measurement of EAE phenotype in a 5-point scale with increased disease symptoms correlating with higher score value. The data is presented as mean EAE clinical score. (D) Mice were weighed the day before EAE induction, and the change (as a percentage) in weight was recorded. The data is presented as mean change from the initial weight. One-way ANOVA was used for statistical analysis. ^a HTLV FP ≠ Vehicle; ^b HTLV FP ≠ Vehicle & HTLV Scr; ^c HTLV FP ≠ HTLV Scr. ^a,b,cP<0.05. (E) Spleenocytes were harvested at 26 DPI and stimulated using MOG35-55. The proliferative responses were assessed by H^3-thymidine incorporation assay and normalized to the proliferation of non-activated T-cells. The data is presented as counts per minute (CPM). n = 7. (F-G) Spleenocytes were harvested at 26 DPI and stimulated using MOG35-55. Media was collected 48 hours following activation and secretion of IFN-γ and IL4 was measured by ELISA assay. […] One-way ANOVA was used for statistical analysis. *P<0.05;**P<0.01;***P<0.001; ns, not significant.
EAE was induced in 9-week-old wild type and homozygous C57BL/6 female mice (Harlan Laboratories Israel/ Weizmann Institute animal facilities) by injecting a peptide comprising residues 35–55 of mouse myelin oligodendrocyte glycoprotein (MOG35–55; PolyPeptide Laboratories, Strasbourg, France). Mice were injected subcutaneously above the lumbar spinal cord with 100 μl of emulsion containing 200 μg/mouse of the encephalitogenic peptide in complete Freund’s adjuvant (BD-Difco) enriched with 250 μg/mouse of heat-inactivated Mycobacterium tuberculosis (BD-Difco) at 0 days post-induction (DPI). The HTLV FP was dissolved in PBS and added to the emulsion (1mg/kg). Pertussis toxin (Enzo Life Sciences) at a dose of 300 ng per mouse was injected intraperitoneally immediately after the encephalitogenic injection, as well as at […]. EAE disease was scored using a five-point grading with 0 for no clinical disease; 1, tail weakness; 2, paraparesis (incomplete paralysis of one or two hindlimbs); 3, paraplegia (complete paralysis of one or two hindlimbs); 4, paraplegia with forelimb weakness or paralysis; 5, moribund or dead animals. The mice were examined daily.
EAE was induced in C57BL/6 female mice that were either treated with a single dose of HTLV FP or vehicle. […] (A) Direct clinical measurement of EAE phenotype in a 5-point scale with increased disease symptoms correlating with higher score value. The data is presented as mean EAE clinical score. (B) Mice were weighed the day before EAE induction, and the change (as a percentage) in weight was recorded. The data is presented as mean change from the initial weight. Student’s t-test was used for statistical analysis. *P<0.05; **P<0.01;***P<0.001. (TIF) Click here for additional data file.

[2] = system: human peripheral T lymphocytes; test: Cytokine secretion from primary human peripheral T-cells (ELISA); assay type: cell-based; conditions: peptide at 10μM, CD3 and CD28 antibodies, media 48 hours following activation, n = 12
Procedure: Fig 4 Primary human T-cell activation is inhibited upon HTLV FP treatment. Human peripheral T lymphocytes were isolated from whole blood and activated using CD3 and CD28 antibodies, in the presence of HTLV FP or HTLV Scr at 10μM. Media was collected 48 hours following activation and secretion of IL2, IFN-γ and IL10 was measured by ELISA assay. […] One-way ANOVA was used for statistical analysis. *P<0.05; ***P<0.001; ns, not significant.
Human peripheral T lymphocytes were isolated from whole blood of healthy adult donors by dextran sedimentation and Ficoll (Sigma) gradient separation followed by depletion of B cells using nylon wool column (Unisorb), to which B cells were adsorbed. Cells were incubated in a complete RPMI growth medium (500 ml RPMI Ca/Mg + heat inactivated FCS (10% final) + 5 ml 200 mM L-Glu (2 mM final) +5 ml […] Na pyruvate (1 mM final) + 5 ml Pen Strep antibiotics) for more than 2 h, and then non-adherent cells were harvested and transferred to a new plate, resulting in ~90% CD3+ T lymphocytes. Cells were then used for in vitro assay, in which […] were plated per well in a 96-well plate and activated using CD3 and CD28 antibodies.
Human peripheral T lymphocytes were isolated from whole blood of healthy donors and were incubated in a complete RPMI growth medium (500 ml RPMI Ca/Mg + heat inactivated FCS (10% final) + 5 ml 200 mM L-Glu (2 mM final) +5 ml […] Na pyruvate (1 mM final) + 5 ml Pen Strep antibiotics). Cells were activated using CD3 and CD28 antibodies, in the presence of relevant peptides at 10μM. Media was collected 48 hours following activation and secretion of IL2 and IFN-γ was determined according to standard protocols from R&D systems.

AVPVAVWLVSALAMGAGVAGGITGSMSLASGKS [HTLV FP, gp21 fusion peptide of HTLV-1, MT-2 isolate]
inhibition of T-cell proliferation, activation by PMA and Ionomycin ([1]; 50ng/mL PMA with 1μM ionomycin, n = 12): inhibited T-cell proliferation induced at all three levels of activation with equal potency
inhibition of T-cell proliferation, activation by antibodies against CD3 and CD28 ([1]; CD3 and CD28 antibodies 2μg/ml, n = 12): inhibited T-cell proliferation induced at all three levels of activation with equal potency
inhibition of T-cell proliferation, activation by MOG35-55 presenting APCs ([1]; irradiated MOG35-55 presenting APCs, mean inhibition of proliferation, n = 12, 10 µM): inhibit T-cell proliferation with equal potency to that of HIV’s FP and significantly stronger than the BLV FP; also recorded: inhibited T-cell proliferation induced at all three levels of activation with equal potency; also recorded: inhibited both T-cell proliferation and IFN-γ secretion with higher potency than the HTLV Scr; also recorded: inhibit T-cell proliferation with higher potency than HTLV FP9-22 and HTLV FP14-22
clinical symptoms of a cage of treated mice at DPI 17 (C57BL/6 female mice; additional experiment, S5 and S6 Movies): mild clinical symptoms
mice exhibiting no clinical manifestation at DPI 17 (C57BL/6 female mice; additional experiment, S6 Movie): 3 out of 5
clinical symptoms of a cage of treated mice at DPI 9 (C57BL/6 female mice; initial experiment, S3 Movie): no observed clinical symptoms
mice exhibiting mild clinical symptoms at DPI 14 (C57BL/6 female mice; initial experiment, S4 Movie, rest with no observed clinical signs): 1 out of 5
EAE clinical symptoms, initial experiment (C57BL/6 female mice; single dose 1mg/kg added to the MOG35-55/CFA emulsion, vs vehicle, terminated at 14 DPI, 5-point scale): only mild clinical symptoms
EAE clinical signs, additional experiment (C57BL/6 female mice; single dose 1mg/kg, HTLV FP, HTLV Scr or vehicle, period 11 to 16 DPI, 5-point scale): only mild clinical symptoms and weight loss
locomotory behavior, initial experiment (C57BL/6 female mice; single dose 1mg/kg, S3 and S4 Movies): most of the HTLV FP treated mice exhibited normal locomotory behavior
locomotory behavior, additional experiment (C57BL/6 female mice; single dose 1mg/kg, S5 and S6 Movies): better locomotory behavior than the HTLV Scr treated mice
weight change, initial experiment (C57BL/6 female mice; single dose 1mg/kg, change from initial weight): only by minor weight fluctuations
weight loss, additional experiment (C57BL/6 female mice; single dose 1mg/kg, period 11 to 16 DPI): only mild clinical symptoms and weight loss
first observation of clinical symptoms, initial experiment (C57BL/6 female mice; single dose 1mg/kg, vehicle-treated mice first observed at 8 DPI): 11 DPI
IFN-γ secretion, human T-cells [2]: significant reduction in IFN-γ and IL2 secretion
IL2 secretion, human T-cells [2]: significant reduction in IFN-γ and IL2 secretion
IL10 secretion, human T-cells [2]: elevation in IL10 secretion
